Patent US20230098332A1, “HETEROCYCLIC DERIVATIVES AS TRMP8 ANTAGONISTS” (Givaudan SA, priority 2020, published 2023)
Structures can show the parent of a compound that is named as a salt.

biological target: T1, hTRPM8 (Homo sapiens, UniProt Q7Z2W7); assay: Assay on TRPM8 modulators: calcium imaging (Fluo-4, Flexstation) in HEK293 cell line stably expressing hTRPM8; format: cell-based; conditions: TRPM8 agonist activity, calcium influx, HEK293 stably expressing hTRPM8, sigmoidal dose-response fit
T1 construct: expressed in transfected cells
T1 sequence (Q7Z2W7 whole entry): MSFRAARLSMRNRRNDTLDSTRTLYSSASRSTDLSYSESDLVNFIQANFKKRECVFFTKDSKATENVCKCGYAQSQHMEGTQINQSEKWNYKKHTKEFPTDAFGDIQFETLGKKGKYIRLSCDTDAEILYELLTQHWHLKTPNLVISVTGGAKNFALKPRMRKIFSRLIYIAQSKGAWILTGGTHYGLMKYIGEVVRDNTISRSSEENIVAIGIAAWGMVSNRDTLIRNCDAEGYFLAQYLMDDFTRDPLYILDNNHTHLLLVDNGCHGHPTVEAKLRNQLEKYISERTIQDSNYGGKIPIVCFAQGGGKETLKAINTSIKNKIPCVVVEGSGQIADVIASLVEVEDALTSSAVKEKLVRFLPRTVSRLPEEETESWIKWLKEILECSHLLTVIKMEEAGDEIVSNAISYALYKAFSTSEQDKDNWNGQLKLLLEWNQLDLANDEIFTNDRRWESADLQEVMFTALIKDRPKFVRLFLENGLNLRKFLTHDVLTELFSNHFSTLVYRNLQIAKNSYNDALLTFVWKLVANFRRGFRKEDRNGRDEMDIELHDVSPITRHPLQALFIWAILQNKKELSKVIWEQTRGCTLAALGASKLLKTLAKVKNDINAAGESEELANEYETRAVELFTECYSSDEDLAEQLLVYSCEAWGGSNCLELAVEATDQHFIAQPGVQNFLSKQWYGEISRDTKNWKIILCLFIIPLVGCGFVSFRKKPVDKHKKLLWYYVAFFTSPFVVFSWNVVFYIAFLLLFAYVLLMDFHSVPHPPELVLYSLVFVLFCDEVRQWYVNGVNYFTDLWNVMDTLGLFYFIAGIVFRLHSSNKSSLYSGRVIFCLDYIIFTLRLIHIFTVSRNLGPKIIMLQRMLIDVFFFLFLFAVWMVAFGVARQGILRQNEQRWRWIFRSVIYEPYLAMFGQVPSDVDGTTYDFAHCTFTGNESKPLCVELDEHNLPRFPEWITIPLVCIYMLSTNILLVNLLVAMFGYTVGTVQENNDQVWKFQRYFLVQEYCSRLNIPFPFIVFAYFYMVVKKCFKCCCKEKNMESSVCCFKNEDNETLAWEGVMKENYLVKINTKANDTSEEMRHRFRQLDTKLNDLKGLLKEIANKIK
Protocol: A HEK293 cell line stably expressing hTRPM8 was generated according to Klein et al., (Chem. Senses 36: 649-658, 2011) and receptor activation was monitored by calcium imaging in a Flexstation. For Ca-imaging assays of TRPM8 channel activation, cells were seeded on day 0 at a density of 12000 cells per well in Dulbecco's modified Eagle medium (DMEM) containing 9% foetal bovine serum in black, clear bottom 96-well plates that had been coated with 0.001% polyethyleneimine (molecular weight=60 000, Acros Organics). On day 2, agonists were evaluated via calcium imaging using Fluo-4. Briefly, growth medium was discarded, and the cells were incubated in the dark for 1 h at 37° C. in 50 μL loading buffer consisting of 2.7 μM Fluo-4 AM (Invitrogen) and […] probenecid (Sigma-Aldrich) in DMEM (without serum). After incubation, the plates were washed five times with 100 μL of assay buffer (in mM: 130 NaCl, 5 KCl, 10 HEPES, 2 CaCl2, and 10 glucose, pH7.4.) and further incubated in the dark at room temperature for 30 min. The cells were then washed five times with 100 μL assay buffer and then calcium influx to serial dilutions of inventive compounds were measured in a Flexstation 3 (Molecular Devices). Receptor activation was initiated following addition of 20 μl of a 10-fold concentrated ligand stock solution, which is also prepared in assay buffer. Fluorescence was continuously monitored for 15 seconds prior to ligand addition and for 105 seconds after ligand addition, for a total of 120 seconds. Maximal receptor activation in relation to solvent control and relative to 31.6 μM menthol is determined. Data from serial dilutions were processed with a KNIME workflow to fit a sigmoidal dose-response curve and to extrapolate EC50 values.

Row | SMILES | EC50 [nM]
1 | Cc1ccc(OCCN2CCN(C)CC2)c(C(C)c2ccccc2)c1 (stereo not shown) [compound 101, 1-methyl-4-(2-(4-methyl-2-(1-phenylethyl)phenoxy)ethyl)piperazine] | 300 to 1000
2 | C=C(c1ccccc1)c1cc(C)ccc1OCCN1CCN(C)CC1 [compound 102, 1-methyl-4-(2-(4-methyl-2-(1-phenylvinyl)phenoxy)ethyl)piperazine] | 300 to 1000
3 | Cc1ccc(OCCN2CCN(C)CC2)c(Cc2cccs2)c1 [compound 105, 1-methyl-4-(2-(4-methyl-2-(thiophen-2-ylmethyl)phenoxy)ethyl)piperazine hydrochloride] | 300 to 1000
4 | Cc1ccc(CC(O)CN2CCOCC2)c(Oc2ccccc2C#N)c1 (stereo not shown) [compound 107, 2-(2-(2-hydroxy-3-morpholinopropyl)-5-methylphenoxy)benzonitrile] | 50 to 300
5 | Cc1ccc(NCCN2CCOCC2)c(Cc2c(F)cccc2F)c1 [compound 110, 2-(2,6-difluorobenzyl)-4-methyl-N-(2-morpholinoethyl)aniline] | 300 to 1000
6 | Cc1cc(C)c(N(C)CCN2CCOCC2)c(Cc2c(F)cccc2F)c1 [compound 111, 2-(2,6-difluorobenzyl)-N,4,6-trimethyl-N-(2-morpholinoethyl)aniline] | 300 to 1000
7 | Cc1ccc(N(C)CCN2CCOCC2)c(Cc2c(F)cccc2F)c1 [compound 112, 2-(2,6-difluorobenzyl)-N,4-dimethyl-N-(2-morpholinoethyl)aniline] | < 50
8 | Cc1cc(C)c(N(C)CCN2CCOCC2)c(Cc2ccccc2F)c1 [compound 113, 2-(2-fluorobenzyl)-N,4,6-trimethyl-N-(2-morpholinoethyl)aniline] | 300 to 1000
9 | Cc1ccc(N(C)CCN2CCOCC2)c(Cc2ccccc2F)c1 [compound 114, 2-(2-fluorobenzyl)-N,4-dimethyl-N-(2-morpholinoethyl)aniline] | 50 to 300
10 | Cc1ccc(OCCN2CCOCC2)c(CC2CCCCC2=O)c1 (stereo not shown) [compound 131, 2-(5-methyl-2-(2-morpholinoethoxy)benzyl)cyclohexan-1-one] | 1000 to 35000
11 | Cc1ccc(NCCN2CCN(C)CC2)c(Cc2ccccc2)c1 [compound 135, 2-benzyl-4-methyl-N-(2-(4-methylpiperazin-1-yl)ethyl)aniline] | 1000 to 35000
12 | Cc1ccc(N(C)CCN2CCOCC2)c(Cc2ccccc2)c1 [compound 138, 2-benzyl-N,4-dimethyl-N-(2-morpholinoethyl)aniline] | 50 to 300
13 | Cc1cc(C)c(OCC(C)N2CCOCC2)c(Cc2c(F)cccc2F)c1 (stereo not shown) [compound 143, 4-(1-(2-(2,6-difluorobenzyl)-4,6-dimethylphenoxy)propan-2-yl)morpholine] | 50 to 300
14 | Cc1cc(C)c(OCCN2CCOCC2)c(C(C)c2ccccc2F)c1 (stereo not shown) [compound 144, 4-(2-(2-(1-(2-fluorophenyl)ethyl)-4,6-dimethylphenoxy)ethyl)morpholine] | 300 to 1000
15 | C=C(c1ccccc1F)c1cc(C)cc(C)c1OCCN1CCOCC1 [compound 145, 4-(2-(2-(1-(2-fluorophenyl)vinyl)-4,6-dimethylphenoxy)ethyl)morpholine] | 300 to 1000
16 | Cc1cc(C)c(OCCN2CCOCC2)c(Cc2ccc(F)cc2F)c1 [compound 146, 4-(2-(2-(2,4-difluorobenzyl)-4,6-dimethylphenoxy)ethyl)morpholine] | 300 to 1000
17 | Cc1cc(C)c(OCCN2CCOCC2)c(Cc2cc(F)ccc2F)c1 [compound 147, 4-(2-(2-(2,5-difluorobenzyl)-4,6-dimethylphenoxy)ethyl)morpholine] | 50 to 300
18 | Cc1cc(C)c(OCCN2CCOCC2)c(Cc2c(Cl)cccc2Cl)c1 [compound 148, 4-(2-(2-(2,6-dichlorobenzyl)-4,6-dimethylphenoxy)ethyl)morpholine] | 300 to 1000
19 | Cc1ccc(OCCN2CCOCC2)c(Cc2c(F)cccc2F)c1 [compound 151, 4-(2-(2-(2,6-difluorobenzyl)-4-methylphenoxy)ethyl)morpholine] | 50 to 300

Next, values leading:

Row | EC50 [nM] | SMILES
20 | 1000 to 35000 | Cc1ccc(OCCCN2CCN(C)CC2)c(Cc2ccccc2)c1 [compound 99, 1-(3-(2-benzyl-4-methylphenoxy)propyl)-4-methylpiperazine hydrochloride]
21 | 300 to 1000 | Cc1ccc(OCCN2CCN(C)CC2)c(Cc2ccccc2C)c1 [compound 103, 1-methyl-4-(2-(4-methyl-2-(2-methylbenzyl)phenoxy)ethyl)piperazine]
22 | 1000 to 35000 | Cc1cccc(Cc2cc(C)ccc2OCCN2CCN(C)CC2)c1 [compound 104, 1-methyl-4-(2-(4-methyl-2-(3-methylbenzyl)phenoxy)ethyl)piperazine]
23 | 300 to 1000 | Cc1cc(C)c(OC(C)CO)c(Cc2ccccc2C#N)c1 (stereo not shown) [compound 106, 2-(2-((1-hydroxypropan-2-yl)oxy)-3,5-dimethylbenzyl)benzonitrile]
24 | 50 to 300 | Cc1cc(C)c(OCCN2CCOCC2)c(Cc2ccccc2CC#N)c1 [compound 108, 2-(2-(3,5-dimethyl-2-(2-morpholinoethoxy)benzyl)phenyl)acetonitrile]
25 | 1000 to 35000 | Cc1cc(C)c(OCCN2CCN(C)CC2)cc1Cc1ccccc1C#N [compound 109, 2-(2,4-dimethyl-5-(2-(4-methylpiperazin-1-yl)ethoxy)benzyl)benzonitrile]
26 | 50 to 300 | Cc1cc(C)c(OC(C)CN2CCN(C)CC2)c(Cc2ccccc2C#N)c1 (stereo not shown) [compound 115, 2-(3,5-dimethyl-2-((1-(4-methylpiperazin-1-yl)propan-2-yl)oxy)benzyl)benzonitrile]
27 | 50 to 300 | Cc1cc(C)c(OC(C)CN2CCN(C)CC2)c(Cc2ccccc2C#N)c1 (stereo not shown) [compound 116, 2-(3,5-dimethyl-2-((1-(4-methylpiperazin-1-yl)propan-2-yl)oxy)benzyl)benzonitrile hydrochloride]
28 | 50 to 300 | Cc1cc(C)c(OCCN2CCN(C)CC2)c(Cc2ccccc2C#N)c1 [compound 117, 2-(3,5-dimethyl-2-(2-(4-methylpiperazin-1-yl)ethoxy)benzyl)benzonitrile]
29 | 50 to 300 | Cc1cc(C)c(OCCN2CCOCC2)c(Cc2c(F)cccc2C#N)c1 [compound 120, 2-(3,5-dimethyl-2-(2-morpholinoethoxy)benzyl)-3-fluorobenzonitrile]
30 | 1000 to 35000 | Cc1cc(C)c(OCCN2CCOCC2)c(Cc2ccccc2N)c1 [compound 121, 2-(3,5-dimethyl-2-(2-morpholinoethoxy)benzyl)aniline]
31 | 50 to 300 | Cc1cc(C)c(OCCCN2CCOCC2)c(Cc2ccccc2C#N)c1 [compound 124, 2-(3,5-dimethyl-2-(3-morpholinopropoxy)benzyl)benzonitrile]
32 | < 50 | Cc1cc(C)c(N(C)CCN2CCOCC2)c(Cc2ccccc2C#N)c1 [compound 126, 2-(3,5-dimethyl-2-(methyl(2-morpholinoethyl)amino)benzyl)benzonitrile]
33 | 1000 to 35000 | Cc1ccc(Oc2ccccc2C#N)c(CCCN2CCN(C)CC2)c1 [compound 127, 2-(4-methyl-2-(3-(4-methylpiperazin-1-yl)propyl)phenoxy)benzonitrile]
34 | 1000 to 35000 | Cc1ccc(OCCC2CCN(C)CC2)c(Cc2ccccc2C#N)c1 [compound 128, 2-(5-methyl-2-(2-(1-methylpiperidin-4-yl)ethoxy)benzyl)benzonitrile]
35 | 50 to 300 | Cc1ccc(OCCN2CCN(C)CC2)c(Cc2ccccc2C#N)c1 [compound 129, 2-(5-methyl-2-(2-(4-methylpiperazin-1-yl)ethoxy)benzyl)benzonitrile]
36 | 300 to 1000 | Cc1ccc(OCC(C)N2CCOCC2)c(Cc2ccccc2C#N)c1 (stereo not shown) [compound 132, 2-(5-methyl-2-(2-morpholinopropoxy)benzyl)benzonitrile]
37 | 50 to 300 | Cc1ccc(CCCN2CCN(C)CC2)c(Oc2ccccc2C#N)c1 [compound 133, 2-(5-methyl-2-(3-(4-methylpiperazin-1-yl)propyl)phenoxy)benzonitrile]
38 | 1000 to 35000 | Cc1ccc(OC(=O)CN2CCN(C)CC2)c(Cc2ccccc2)c1 [compound 136, 2-benzyl-4-methylphenyl 2-(4-methylpiperazin-1-yl)acetate]
39 | 1000 to 35000 | Cc1cc(C)c(OCCN2CCN(C)CC2)c(Cc2cccc(C#N)c2)c1 [compound 139, 3-(3,5-dimethyl-2-(2-(4-methylpiperazin-1-yl)ethoxy)benzyl)benzonitrile dihydrochloride]
40 | 300 to 1000 | Cc1cc(C)c(OCCN2CCOCC2)c(Cc2c(Br)cccc2C#N)c1 [compound 141, 3-bromo-2-(3,5-dimethyl-2-(2-morpholinoethoxy)benzyl)benzonitrile]
41 | 300 to 1000 | Cc1cc(C)c(OCCN2CCOCC2)c(Cc2c(Cl)cccc2C#N)c1 [compound 142, 3-chloro-2-(3,5-dimethyl-2-(2-morpholinoethoxy)benzyl)benzonitrile]
42 | 300 to 1000 | Cc1cc(C)c(OC(C)CN2CCOCC2)c(Cc2c(F)cccc2F)c1 (stereo not shown) [compound 150, 4-(2-(2-(2,6-difluorobenzyl)-4,6-dimethylphenoxy)propyl)morpholine]
43 | 50 to 300 | Cc1cc(C)c(OCCN2CCOCC2)c(Cc2ccccc2Cl)c1 [compound 152, 4-(2-(2-(2-chlorobenzyl)-4,6-dimethylphenoxy)ethyl)morpholine]
